The record followed here is US11179397B2, “Imidazopyrimidine derivatives” (Gilead Sciences, Inc., priority 2018, dated 2021).

Molecules are shown by their SMILES. pEC50, pIC50: −log10 of the molar value.

SHP-2 full length protein, sequence (Q06124 whole entry): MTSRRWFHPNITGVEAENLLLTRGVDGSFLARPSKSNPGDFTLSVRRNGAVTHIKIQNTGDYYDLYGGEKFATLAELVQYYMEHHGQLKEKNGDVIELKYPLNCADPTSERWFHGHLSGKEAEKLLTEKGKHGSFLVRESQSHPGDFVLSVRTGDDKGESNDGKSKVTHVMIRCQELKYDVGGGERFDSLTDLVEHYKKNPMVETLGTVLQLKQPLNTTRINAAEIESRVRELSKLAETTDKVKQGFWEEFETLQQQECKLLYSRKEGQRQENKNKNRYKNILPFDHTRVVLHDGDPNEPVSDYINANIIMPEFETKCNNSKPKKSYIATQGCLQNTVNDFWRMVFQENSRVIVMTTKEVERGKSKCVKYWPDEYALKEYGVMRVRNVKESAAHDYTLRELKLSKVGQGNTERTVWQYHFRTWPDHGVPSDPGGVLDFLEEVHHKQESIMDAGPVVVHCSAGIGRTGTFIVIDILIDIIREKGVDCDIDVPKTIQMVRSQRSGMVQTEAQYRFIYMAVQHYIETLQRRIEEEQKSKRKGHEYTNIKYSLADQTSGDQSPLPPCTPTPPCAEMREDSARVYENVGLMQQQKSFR

For one experiment, the target named is SHP-2 full length protein (Homo sapiens (Human), UniProt Q06124). The experiment can be described thus: SHP-2 biochemical DiFMUP pseudosubstrate-fluorogenic assay. The settings on record: 0.2 nM SHP-2, 1 μM IRS-1 activator peptide, 50 μM DiFMUP; read-out: SHP2 IC50. As for the experimental part:
SHP-2 Biochemical Assay Materials Recombinant SHP-2 full length protein was generated in house. SHP-2 protein tyrosine phosphatase (PTP) domain protein (Catalog number SPR0217-20 ug), NaCl (Catalog number S6546-1L), and KCl (Catalog number 60142-500 mL) were purchased from Sigma-Aldrich (St. Louis, Mo.). IRS-1_[…](dPEG8)[…] peptide […]) was custom made by AnaSpec (Fremont, Calif.). DiFMUP substrate (Catalog number D6567), EDTA (Catalog number E177-500 mL), DTT (Catalog number P2325), and 384-well black polystyrene non-binding surface (Catalog number 3820) were purchased from Fisher Scientific (Hanover Park, Ill.). HEPES (Catalog number 15630-080) was purchased from Life Technologies (Pleasanton, Calif.), and Tween-20 (Catalog number 95059-250) was purchased from VWR (Radnor, Pa.). Method Inhibition of SHP-2 activity by small molecule inhibitors was monitored by a biochemical DiFMUP pseudosubstrate-fluorogenic assay. […] The reaction mix was added to the 384-well non-binding plate which had been pre-spotted with 1:3 serial diluted compounds from 10,000-0.005 nM, and incubated at room temperature for 90 min. DiFMUP substrate at final concentration of 50 μM was then added to the wells and incubated for additional 30 min at room temperature. The final reaction volume was 20 μl/well. […] The inhibitor dose response curves were generated using normalized IC50 regression curve fitting by in house dose response analysis tools. The wells with DMSO vehicle were used as controls (100% signal). The percent (%) control of SHP-2 compound was calculated as: (Compound well fluorescence counts/DMSO fluorescence counts)×100%.
What is called pIC50 is the negative decadic logarithm of the IC50, by convention in mol/L. As for `Cc1nc(N2CCC3(CCC[C@H]3N)CC2)n2ccnc2c1-c1cccc2cc[nH]c12` [Example 3], the negative-log IC50 (pIC50) was 7.07. On to `Cc1nc(N2CCC3(CCC[C@H]3N)CC2)n2ccnc2c1-c1ccncc1` [Example 4, (R)-8-(7-methyl-8-(pyridin-4-yl)imidazo[1,2-c]pyrimidin-5-yl)-8-azaspiro[4.5]decan-1-amine], for which the negative-log IC50 (pIC50) was 5.74. In the case of `Cc1nc(N2CCC3(CCC[C@H]3N)CC2)n2ccnc2c1-c1ccccn1` [Example 6, (R)-8-(7-methyl-8-(pyridin-2-yl)imidazo[1,2-c]pyrimidin-5-yl)-8-azaspiro[4.5]decan-1-amine], the pIC50 is 5.27.

As to `Cc1nc(N2CCC3(CCC[C@H]3N)CC2)n2ccnc2c1-c1ccccc1Cl` [Example 8, (R)-8-(8-(2-chlorophenyl)-7-methylimidazo[1,2-c]pyrimidin-5-yl)-8-azaspiro[4.5]decan-1-amine], the pIC50 is 7.59.

Regarding `Cc1cnn(C)c1-c1c(C)nc(N2CCC3(CCC[C@H]3N)CC2)n2ccnc12` [Example 14, (R)-8-(8-(1,4-dimethyl-1H-pyrazol-5-yl)-7-methylimidazo[1,2-c]pyrimidin-5-yl)-8-azaspiro[4.5]decan-1-amine], the pIC50 was < 5.00. On to `Cc1nc(N2CCC3(CCC[C@H]3N)CC2)n2ccnc2c1-c1cc(N)ncc1Cl` [Example 16, (R)-8-(8-(2-amino-5-chloropyridin-4-yl)-7-methylimidazo[1,2-c]pyrimidin-5-yl)-8-azaspiro[4.5]decan-1-amine], for which the negative-log IC50 (pIC50) is 6.24.

Regarding `Cc1nc(N2CCC3(CCC[C@H]3N)CC2)n2ccnc2c1Sc1ccc(N)nc1C(F)(F)F` [Example 17, (R)-8-(8-((6-amino-2-(trifluoromethyl)pyridin-3-yl)thio)-7-methylimidazo[1,2-c]pyrimidin-5-yl)-8-azaspiro[4.5]decan-1-amine], the negative-log IC50 (pIC50) was 8.00. `Cc1nc(N2CCC3(CCC[C@H]3N)CC2)n2ccnc2c1-c1cccnc1C(F)(F)F` [Example 19, (R)-8-(7-methyl-8-(2-(trifluoromethyl)pyridin-3-yl)imidazo[1,2-c]pyrimidin-5-yl)-8-azaspiro[4.5]decan-1-amine]: the negative-log IC50 (pIC50) is < 5.00. `Cc1noc(C)c1-c1c(C)nc(N2CCC3(CCC[C@H]3N)CC2)n2ccnc12` [Example 20]: the pIC50 was < 5.00. For `Cc1nc(N2CCC3(CCC[C@H]3N)CC2)n2ccnc2c1-c1ccccc1C(F)(F)F` [Example 21, (R)-8-(7-methyl-8-(2-(trifluoromethyl)phenyl)imidazo[1,2-c]pyrimidin-5-yl)-8-azaspiro[4.5]decan-1-amine], the pIC50 was < 5.00. For `Cc1nc(N2CCC3(CCC[C@H]3N)CC2)n2ccnc2c1-c1cccnc1` [Example 22, (R)-8-(7-methyl-8-(pyridin-3-yl)imidazo[1,2-c]pyrimidin-5-yl)-8-azaspiro[4.5]decan-1-amine], the pIC50 is 5.77. As for `Cc1nc(N2CCC3(CCC[C@H]3N)CC2)n2ccnc2c1-c1ccnc(C(F)(F)F)c1` [Example 24, (R)-8-(7-methyl-8-(2-(trifluoromethyl)pyridin-4-yl)imidazo[1,2-c]pyrimidin-5-yl)-8-azaspiro[4.5]decan-1-amine], the negative-log IC50 (pIC50) is < 5.00.

For the compound `Cc1nc(N2CCC3(CC2)C[C@H](O)C[C@H]3N)n2ccnc2c1-c1cccc(Cl)c1Cl` [Example 34, (2S,4R)-4-amino-8-(8-(2,3-dichlorophenyl)-7-methylimidazo[1,2-c]pyrimidin-5-yl)-8-azaspiro[4.5]decan-2-ol], the negative logarithm of the IC50 (pIC50) was 8.48.

As to `C[C@@H]1OCC2(CCN(c3ncc(Sc4ccc(N)nc4C(F)(F)F)c4nccn34)CC2)[C@@H]1N` [Example 37, (3S,4S)-8-(8-((6-amino-2-(trifluoromethyl)pyridin-3-yl)thio)imidazo[1,2-c]pyrimidin-5-yl)-3-methyl-2-oxa-8-azaspiro[4.5]decan-4-amine], the pIC50 is 7.77. As for `CC1(CN)CCN(c2ncc(Sc3cccc(Cl)c3Cl)c3nccn23)CC1` [Example 43, (1-(8-((2,3-dichlorophenyl)thio)imidazo[1,2-c]pyrimidin-5-yl)-4-methylpiperidin-4-yl)methanamine], the negative logarithm of the IC50 (pIC50) is 7.64. Same read-out and setting: the result for `CC1(N)CCN(c2ncc(Sc3ccccc3)c3nccn23)CC1` [Example 49, 4-methyl-1-(8-(phenylthio)imidazo[1,2-c]pyrimidin-5-yl)piperidin-4-amine] reads 5.14.

As for `Nc1cc(C(F)(F)F)c(Sc2cnc(N3CCC4(CCC[C@H]4N)CC3)n3ccnc23)cn1` [Example 50, (R)-8-(8-((6-amino-4-(trifluoromethyl)pyridin-3-yl)thio)imidazo[1,2-c]pyrimidin-5-yl)-8-azaspiro[4.5]decan-1-amine], the negative logarithm of the IC50 (pIC50) was 5.12. The same measure, in the same setting: the result for `Nc1ccc(Sc2cnc(N3CCC4(CCC[C@H]4N)CC3)n3ccnc23)c(C(F)(F)F)n1` [Example 51, (R)-8-(8-((6-amino-2-(trifluoromethyl)pyridin-3-yl)thio)imidazo[1,2-c]pyrimidin-5-yl)-8-azaspiro[4.5]decan-1-amine] reads 7.82; that for `Nc1cc(Sc2cnc(N3CCC4(CCC[C@H]4N)CC3)n3ccnc23)c(C(F)(F)F)cn1` [Example 53, (R)-8-(8-((2-amino-5-(trifluoromethyl)pyridin-4-yl)thio)imidazo[1,2-c]pyrimidin-5-yl)-8-azaspiro[4.5]decan-1-amine], 7.92. Regarding `N[C@@H]1CCCC12CCN(c1ncc(Sc3cncnc3C(F)(F)F)c3nccn13)CC2` [Example 54, (R)-8-(8-((4-(trifluoromethyl)pyrimidin-5-yl)thio)imidazo[1,2-c]pyrimidin-5-yl)-8-azaspiro[4.5]decan-1-amine], the pIC50 was 5.32. As to `NC1CCCCN(c2ncc(Sc3cccc(Cl)c3Cl)c3nccn23)C1` (stereo not shown) [Example 59, 1-(8-((2,3-dichlorophenyl)thio)imidazo[1,2-c]pyrimidin-5-yl)azepan-3-amine], the pIC50 was < 5.00.

In the case of `Cc1nc(N2CCC3(CCC[C@H]3N)CC2)n2ncnc2c1-c1cccc(Cl)c1Cl` [Example 60, (R)-8-(8-(2,3-dichlorophenyl)-7-methyl-[1,2,4]triazolo[1,5-c]pyrimidin-5-yl)-8-azaspiro[4.5]decan-1-amine], the pIC50 is 7.01.

In the case of `Cc1nnc2c(Sc3cccc(Cl)c3Cl)cnc(N3CCC(C)(CN)CC3)n12` [Example 64, (1-(8-((2,3-dichlorophenyl)thio)-3-methyl-[1,2,4]triazolo[4,3-c]pyrimidin-5-yl)-4-methylpiperidin-4-yl)methanamine], the pIC50 was 6.10.

As for `Cc1nc(N2CCC3(CCC[C@H]3N)CC2)n2cnnc2c1-c1cccc(Cl)c1Cl` [Example 65, (R)-8-(8-(2,3-dichlorophenyl)-7-methyl[1,2,4]triazolo[4,3-c]pyrimidin-5-yl)-8-azaspiro[4.5]decan-1-amine], the pIC50 was 7.70. For the compound `C[C@@H]1OCC2(CCN(c3ncc(Sc4nccc5ccccc45)c4nccn34)CC2)[C@@H]1N` [Example 118, (3S,4S)-8-(8-(isoquinolin-1-ylthio)imidazo[1,2-c]pyrimidin-5-yl)-3-methyl-2-oxa-8-azaspiro[4.5]decan-4-amine], the pIC50 was 6.26. Still for that read-out and setting: the result for `C[C@@H]1OCC2(CCN(c3ncc(Sc4ccnc5cc(C#N)ccc45)c4nccn34)CC2)[C@@H]1N` [Example 125, 4-((5-((3S,4S)-4-amino-3-methyl-2-oxa-8-azaspiro[4.5]decan-8-yl)imidazo[1,2-c]pyrimidin-8-yl)thio)quinoline-7-carbonitrile] reads 7.29. Same read-out and setting: next, `C[C@@H]1OCC2(CCN(c3ncc(Sc4ccnc5cc(Cl)ccc45)c4nccn34)CC2)[C@@H]1N` [Example 134, (3S,4S)-8-(8-((7-chloroquinolin-4-yl)thio)imidazo[1,2-c]pyrimidin-5-yl)-3-methyl-2-oxa-8-azaspiro[4.5]decan-4-amine]: 8.05.

A further experiment concerns NCI-H358 cells. The experiment can be described thus: NCI-H358 3D tumor spheroid growth inhibition. The format is cell-based. To be noted: Homo sapiens, NCI-H358, 168 h, 3D spheroids, 7 days, 3D CellTiter Glo; cellular IC50 designated EC50; read-out: H358 EC50. The source says: SHP-2 Cell Based Assay: […] Materials NCI-H358 cell line was purchased from [NT] number ATCC CRL-5807) (Manassas, Va.). RPMI-1640 (Catalog number 10-040-CM) was from Corning Cellgro (Manassas, Va.), Fetal Bovine Serum (FBS) (Catalog number SH30071.03) was from HyClone (Logan, Utanh), and 100× Penicillin/Streptomycin/L-Glutamine stock (Catalog no. 30-009-CI) and 384-well ULA plates (Catalog number 3830) were from Corning (Fremont, Calif.). Method […] At the day of assay, the cells were trypsinized and seeded at 1000 cells/70 μl/well in 384-well ULA plates and incubated at 37° C. incubator with 5% CO2 to allow spheroids to form. […] The plates were incubated for additional 7 days. Then 35 μl of medium from each well was removed, and replaced with 35 μl of 3D CellTiter Glo reagent from Promega. The wells were mixed by pipetting up and down with Biomek FX for 15 times to induce cell lysis and the plates were incubated at room temperature for additional 10 min to stabilize luminescent signal. The luminescence was then read by Envision. The inhibitor dose response curves were generated using normalized cellular IC50 (designated as EC50 in all FIGURES to distinguish from biochemical IC50s) by in house dose response analyses tools. The wells with DMSO vehicle were used as negative controls (0% inhibition). The % inhibition of SHP-2 compounds was calculated as: 100-[(Compound well luminescence counts/DMSO luminescence counts)×100%].
Background: ATP-based viability assays read luminescence as a measure of living cells.
By pEC50 is commonly meant the negative decadic logarithm of the EC50, by convention in mol/L. Take `Cc1nc(N2CCC3(CCC[C@H]3N)CC2)n2ccnc2c1-c1cnc(N)c(Cl)c1Cl` [Example 27]: the negative logarithm of the EC50 (pEC50) is 6.74.
